Assay results: PMC9879182, “New benzothiazole hybrids as potential VEGFR-2 inhibitors: design, synthesis, anticancer evaluation, and in silico study” (Journal of Enzyme Inhibition and Medicinal Chemistry, 2023)
Where two headings read alike, the source gives them in different places. Blank lines part the entries; values can stand above or below the compound they belong to.

Columns and labels:
[1] = tested on: MCF-7 (breast cancer); assay: MTT cytotoxicity assay, MCF-7; assay type: cell-based; settings: Homo sapiens, MCF7, mean ± SD, triplicate
Procedure: (§1) The in vitro anticancer activity of the new benzothiazole hybrids was evaluated by performing MTT assay as in the literature[51]^,[55]^,[56].

[2] = tested on: HCT-116, HEPG-2, and MCF-7; assay: MTT cytotoxicity assay, range over the three cancer cell lines; assay type: cell-based, human; settings: range over HCT-116, HEPG-2 and MCF-7, read-out: IC50 range towards the three cell lines
Procedure: as §1

[3] = tested on: HCT-116 (colorectal carcinoma); assay: MTT cytotoxicity assay, HCT-116; assay type: cell-based; settings: Homo sapiens, mean ± SD, triplicate
Procedure: as §1

[4] = tested on: HEPG-2 (hepatocellular carcinoma); assay: MTT cytotoxicity assay, HepG-2; assay type: cell-based; settings: Homo sapiens, HepG2, mean ± SD, triplicate
Procedure: as §1

[5] = tested on: WI-38 normal fibroblast cells; assay: MTT cytotoxicity against normal cells; assay type: cell-based; settings: Homo sapiens, mean ± SD, triplicate
Procedure: as §1
All tested compounds were studied for their cytotoxic activity on the WI-38 normal fibroblast WI-38 cells to assess their therapeutic safety.

[6] = tested on: MCF-7 cells; assay: Annexin V-FITC/PI apoptosis assay; assay type: cell-based, human; settings: MCF-7, 24 h; untreated control 0.59%
Procedure: The extent of apoptosis was evaluated on MCF-7 cells and Annexin V-FITC/PI apoptosis detection kit following the reported method[51]^,[59].
The development of apoptosis inducers is highly attractive therapeutic strategy for the identification of powerful anticancer drugs[67]^,[68].

[7] = target: T1, VEGFR-2 (Homo sapiens, UniProt P35968); assay: In vitro VEGFR-2 kinase inhibitory assay; assay type: biochemical; settings: for inhibition at 1 µM: VEGFR-2, compound at 1 μM; for inhibition at 10 µM: VEGFR-2, compound at 10 μM; for % Inhibition 10 nm: VEGFR-2, compound at 10 nm; for % Inhibition 100 nm: VEGFR-2, compound at 100 nm; for IC50: four concentrations 10 nM–10 μM
T1 construct: VEGFR-2 enzyme assay was performed as reported[57]

[8] = tested on: MCF-7 cells; assay: Flow cytometry cell cycle analysis (PI staining); assay type: cell-based, human; settings: for phase of cell cycle arrest: MCF-7, 24 h; for Cell cycle distribution (%) G2-M / Cell cycle distribution (%) S / Cell cycle distribution (%) G0-G1: MCF-7, IC50 concentration, 24 h; for Cell cycle distribution (%) G2-M: control (DMSO) 10.19; for Cell cycle distribution (%) S: control (DMSO) 31.89; for Cell cycle distribution (%) G0-G1: control (DMSO) 57.92
Procedure: It was carried out using MCF-7 cell lines stained with PI and analysed by FACS Calibur flow cytometer as reported[51]^,[58].
The cells were treated with DMSO as a control.

[9] = target: T1, VEGFR-2; settings: cited from earlier work

T1 sequence (P35968 20-1356): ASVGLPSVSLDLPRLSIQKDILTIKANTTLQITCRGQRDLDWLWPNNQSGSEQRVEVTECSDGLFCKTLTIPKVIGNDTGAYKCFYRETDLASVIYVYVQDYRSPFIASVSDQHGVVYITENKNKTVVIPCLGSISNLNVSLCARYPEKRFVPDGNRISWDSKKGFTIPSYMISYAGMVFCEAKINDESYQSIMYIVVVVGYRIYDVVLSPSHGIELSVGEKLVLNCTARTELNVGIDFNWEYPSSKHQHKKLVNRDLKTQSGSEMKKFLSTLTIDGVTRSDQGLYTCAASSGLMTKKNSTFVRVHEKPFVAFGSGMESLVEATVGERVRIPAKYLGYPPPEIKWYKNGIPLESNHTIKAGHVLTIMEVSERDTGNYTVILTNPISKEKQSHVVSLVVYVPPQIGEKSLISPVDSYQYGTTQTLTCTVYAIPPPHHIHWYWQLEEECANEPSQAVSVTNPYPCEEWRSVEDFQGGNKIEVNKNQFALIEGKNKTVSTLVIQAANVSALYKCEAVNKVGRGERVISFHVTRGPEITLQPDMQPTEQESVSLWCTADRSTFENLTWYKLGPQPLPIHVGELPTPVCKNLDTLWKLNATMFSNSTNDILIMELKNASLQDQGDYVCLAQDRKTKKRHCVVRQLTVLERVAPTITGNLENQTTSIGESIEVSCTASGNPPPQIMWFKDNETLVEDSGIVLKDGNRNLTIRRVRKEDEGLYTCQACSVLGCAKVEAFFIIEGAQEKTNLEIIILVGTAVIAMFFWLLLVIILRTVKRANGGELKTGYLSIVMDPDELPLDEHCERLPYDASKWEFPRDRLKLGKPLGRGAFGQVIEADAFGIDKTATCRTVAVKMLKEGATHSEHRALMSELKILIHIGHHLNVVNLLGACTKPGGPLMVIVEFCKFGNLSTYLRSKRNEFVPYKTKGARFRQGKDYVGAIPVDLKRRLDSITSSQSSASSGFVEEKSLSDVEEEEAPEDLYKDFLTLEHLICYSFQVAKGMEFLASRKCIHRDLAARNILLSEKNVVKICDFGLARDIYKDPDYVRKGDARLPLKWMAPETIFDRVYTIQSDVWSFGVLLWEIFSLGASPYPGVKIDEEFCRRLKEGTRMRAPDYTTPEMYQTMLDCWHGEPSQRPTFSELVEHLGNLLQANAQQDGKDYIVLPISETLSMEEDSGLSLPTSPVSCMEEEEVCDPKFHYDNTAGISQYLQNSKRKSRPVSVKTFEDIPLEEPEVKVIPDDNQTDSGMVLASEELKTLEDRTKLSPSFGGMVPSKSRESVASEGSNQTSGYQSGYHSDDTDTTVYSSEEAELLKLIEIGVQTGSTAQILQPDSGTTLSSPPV

melting point: 201 to 203 °C
SMILES: Cc1ccc(C=C2SC(=O)N(CC(=O)Nc3nc4ccc([N+](=O)[O-])cc4s3)C2=O)cc1 [4d, 2-(5-(4-Methylbenzylidene)-2,4-dioxothiazolidin-3-yl)-N-(6-nitrobenzo[d]thiazol-2-yl)acetamide]
IC50 [1]: 15.5 ± 1.2 µM
IC50 ([2]; Homo sapiens): 15.5 to 26.8 µM
IC50 [3]: 26.8 ± 2.1 µM
IC50 [4]: 21.1 ± 1.8 µM
IC50 [5]: 74 ± 4.1 µM

SMILES: CNC(=O)c1cc(Oc2ccc(NC(=O)Nc3ccc(Cl)c(C(F)(F)F)c3)cc2)ccn1 [SOR, Sorafenib, reference compound]
IC50 [1]: 4.17 ± 0.2 µM
IC50 [3]: 5.23 ± 0.3 µM
IC50 [4]: 4.5 ± 0.2 µM
IC50 [5]: 6.72 ± 0.5 µM

inhibition at 1 µM [7]: 70.5%
inhibition at 10 µM [7]: 88.7%
% Inhibition 10 nm [7]: 24.09%
% Inhibition 100 nm [7]: 42.84%
IC50 [7]: 161 nM
SMILES: COc1cc(C=C2SC(=O)N(CC(=O)Nc3nc4ccc([N+](=O)[O-])cc4s3)C2=O)cc(OC)c1OC [4e, 2-(2,4-Dioxo-5–(3,4,5-trimethoxybenzylidene)thiazolidin-3-yl)-N-(6-nitrobenzo[d]thiazol-2-yl)acetamide]
ratio of total apoptotic cells (early and late apoptotic cells) [6]: 42.17%
IC50 [1]: 6.11 ± 0.4 µM
IC50 ([2]; Homo sapiens): 3.84 to 9.04 µM
IC50 [2]: 6.11 to 9.04 µM
IC50 [3]: 8.24 ± 0.6 µM
phase of cell cycle arrest [8]: S phase
Cell cycle distribution (%) G2-M [8]: 4.99%
Cell cycle distribution (%) S [8]: 42.66%
Cell cycle distribution (%) G0-G1 [8]: 52.35%
IC50 [4]: 9.04 ± 0.8 µM
IC50 [5]: 32.8 ± 2.3 µM

SMILES: O=C(CN1C(=O)S/C(=C\c2ccc(F)cc2)C1=O)Nc1nc2ccccc2s1 [X]
IC50 [9]: 190 nM

SMILES: O=C(CN1C(=O)SC(=Cc2ccc(F)cc2)C1=O)Nc1nc2ccc([N+](=O)[O-])cc2s1 [4a, 2-(5-(4-Fluorobenzylidene)-2,4-dioxothiazolidin-3-yl)-N-(6-nitrobenzo[d]thiazol-2-yl)acetamide]
ratio of total apoptotic cells (early and late apoptotic cells) [6]: 49.71%
IC50 [1]: 3.84 ± 0.1 µM
IC50 ([2]; Homo sapiens): 3.84 to 9.04 µM
IC50 [3]: 5.61 ± 0.3 µM
inhibition at 1 µM [7]: 77.9%
inhibition at 10 µM [7]: 92%
% Inhibition 10 nm [7]: 31.27%
% Inhibition 100 nm [7]: 45.14%
IC50 [7]: 91 nM
Cell cycle distribution (%) G2-M [8]: 3.28%
Cell cycle distribution (%) S [8]: 49.85%
Cell cycle distribution (%) G0-G1 [8]: 46.87%
IC50 [4]: 7.92 ± 0.6 µM
IC50 [5]: 45.2 ± 2.6 µM

inhibition at 1 µM [7]: 70.1%
inhibition at 10 µM [7]: 83.5%
% Inhibition 10 nm [7]: 16.31%
% Inhibition 100 nm [7]: 37.14%
IC50 [7]: 266 nM
SMILES: Cc1ccc(-c2nc(SCC(=O)Nc3nc4ccc([N+](=O)[O-])cc4s3)[nH]c(=O)c2C#N)cc1 [8a]
ratio of total apoptotic cells (early and late apoptotic cells) [6]: 30.75%
IC50 [1]: 10.9 ± 0.8 µM
IC50 ([2]; Homo sapiens): 10.9 to 18.1 µM
IC50 [3]: 13.9 ± 1 µM
phase of cell cycle arrest [8]: G1/S phase
Cell cycle distribution (%) G2-M [8]: 2.53%
Cell cycle distribution (%) S [8]: 36.11%
Cell cycle distribution (%) G0-G1 [8]: 61.36%
IC50 [4]: 18.1 ± 1.4 µM
IC50 [5]: 53.1 ± 3.1 µM

SMILES: O=C(CN1C(=O)SC(=Cc2ccc(Br)cc2)C1=O)Nc1nc2ccc([N+](=O)[O-])cc2s1 [4c, 2-(5-(4-Bromobenzylidene)-2,4-dioxothiazolidin-3-yl)-N-(6-nitrobenzo[d]thiazol-2-yl)acetamide]
IC50 [1]: 50.1 ± 2.9 µM
IC50 ([2]; Homo sapiens): 47.9 to 65.5 µM
IC50 [3]: 47.9 ± 2.9 µM
IC50 [4]: 65.5 ± 3.6 µM
IC50 [5]: 28.9 ± 2.2 µM

SMILES: COc1ccc(C=C2SC(=O)N(CC(=O)Nc3nc4ccc([N+](=O)[O-])cc4s3)C2=O)cc1 [4b, 2-(5-(4-Methoxybenzylidene)-2,4-dioxothiazolidin-3-yl)-N-(6-nitrobenzo[d]thiazol-2-yl)acetamide]
IC50 [1]: 22.3 ± 1.7 µM
IC50 ([2]; Homo sapiens): 22.3 to 34.7 µM
IC50 [3]: 29.9 ± 2.2 µM
IC50 [4]: 34.7 ± 2.4 µM
IC50 [5]: 77.6 ± 4.3 µM
